Measured values published in the kinase profiling compilation of Christmann-Franck et al. (2016).

Legend:
Experiment in all cases: split-luciferase competition binding
AURKC (human) = AURKC (human) (UniProt Q9UQB9); conditions: compound 10.0 µM
PRKCH (human) = PRKCH (human) (UniProt P24723); conditions: compound 10.0 µM
RPS6KA6 KD1 (human) = RPS6KA6 KD1 (human) (UniProt Q9UK32); conditions: compound 10.0 µM
PRKCE (human) = PRKCE (human) (UniProt Q02156); conditions: compound 10.0 µM
AKT2 (human) = AKT2 (human) (UniProt P31751); conditions: compound 10.0 µM
PRKACA (mouse) = conditions: compound 10.0 µM; accession and sequence are those of the human protein
RPS6KA3 KD1 (human) = RPS6KA3 KD1 (human) (UniProt P51812); conditions: compound 10.0 µM
RPS6KA5 KD1 (human) = RPS6KA5 KD1 (human) (UniProt O75582); conditions: compound 10.0 µM
SGK2 (human) = SGK2 (human) (UniProt Q9HBY8); conditions: compound 10.0 µM
PDPK1 (human) = PDPK1 (human) (UniProt O15530); conditions: compound 10.0 µM
AURKA (human) = AURKA (human) (UniProt O14965); conditions: compound 10.0 µM
AKT3 (human) = AKT3 (human) (UniProt Q9Y243); conditions: compound 10.0 µM
SGK3 (human) = SGK3 (human) (UniProt Q96BR1); conditions: compound 10.0 µM
PRKCI (human) = PRKCI (human) (UniProt P41743); conditions: compound 10.0 µM
DMPK (human) = DMPK (human) (UniProt Q09013); conditions: compound 10.0 µM
PKN1 (human) = PKN1 (human) (UniProt Q16512); conditions: compound 10.0 µM
AKT1 (human) = AKT1 (human) (UniProt P31749); conditions: compound 10.0 µM
AURKB (human) = AURKB (human) (UniProt Q96GD4); conditions: compound 10.0 µM
PRKCQ (human) = PRKCQ (human) (UniProt Q04759); conditions: compound 10.0 µM
PRKX (human) = PRKX (human) (UniProt P51817); conditions: compound 10.0 µM
RPS6KA4 KD1 (human) = RPS6KA4 KD1 (human) (UniProt O75676); conditions: compound 10.0 µM
PRKACB (human) = PRKACB (human) (UniProt P22694); conditions: compound 10.0 µM
PRKCD (human) = PRKCD (human) (UniProt Q05655); conditions: compound 10.0 µM
PRKCG (human) = PRKCG (human) (UniProt P05129); conditions: compound 10.0 µM
RPS6KA1 KD1 (human) = RPS6KA1 KD1 (human) (UniProt Q15418); conditions: compound 10.0 µM
RPS6KA2 KD1 (human) = RPS6KA2 KD1 (human) (UniProt Q15349); conditions: compound 10.0 µM
STK32B (human) = STK32B (human) (UniProt Q9NY57); conditions: compound 10.0 µM

Sequence of PRKCQ (human) (Q04759 whole entry, looked up): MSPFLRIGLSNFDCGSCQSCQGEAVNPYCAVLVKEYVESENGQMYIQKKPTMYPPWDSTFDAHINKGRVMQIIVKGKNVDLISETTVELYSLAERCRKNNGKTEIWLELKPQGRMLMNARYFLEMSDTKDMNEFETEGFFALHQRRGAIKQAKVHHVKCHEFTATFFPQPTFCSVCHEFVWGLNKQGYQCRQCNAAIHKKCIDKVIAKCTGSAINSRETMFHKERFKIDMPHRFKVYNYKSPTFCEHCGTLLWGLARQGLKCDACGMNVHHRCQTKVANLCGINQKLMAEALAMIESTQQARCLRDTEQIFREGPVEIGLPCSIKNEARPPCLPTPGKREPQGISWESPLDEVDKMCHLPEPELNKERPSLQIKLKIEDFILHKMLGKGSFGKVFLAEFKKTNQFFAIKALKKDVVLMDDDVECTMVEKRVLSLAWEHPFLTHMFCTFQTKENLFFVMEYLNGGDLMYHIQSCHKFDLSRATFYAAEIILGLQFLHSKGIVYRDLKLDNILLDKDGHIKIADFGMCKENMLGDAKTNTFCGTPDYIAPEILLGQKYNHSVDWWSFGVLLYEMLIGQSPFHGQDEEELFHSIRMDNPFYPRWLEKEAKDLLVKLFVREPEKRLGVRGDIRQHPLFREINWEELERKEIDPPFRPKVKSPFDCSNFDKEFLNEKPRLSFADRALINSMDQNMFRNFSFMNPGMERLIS
Sequence of AKT2 (human) (P31751 whole entry, looked up): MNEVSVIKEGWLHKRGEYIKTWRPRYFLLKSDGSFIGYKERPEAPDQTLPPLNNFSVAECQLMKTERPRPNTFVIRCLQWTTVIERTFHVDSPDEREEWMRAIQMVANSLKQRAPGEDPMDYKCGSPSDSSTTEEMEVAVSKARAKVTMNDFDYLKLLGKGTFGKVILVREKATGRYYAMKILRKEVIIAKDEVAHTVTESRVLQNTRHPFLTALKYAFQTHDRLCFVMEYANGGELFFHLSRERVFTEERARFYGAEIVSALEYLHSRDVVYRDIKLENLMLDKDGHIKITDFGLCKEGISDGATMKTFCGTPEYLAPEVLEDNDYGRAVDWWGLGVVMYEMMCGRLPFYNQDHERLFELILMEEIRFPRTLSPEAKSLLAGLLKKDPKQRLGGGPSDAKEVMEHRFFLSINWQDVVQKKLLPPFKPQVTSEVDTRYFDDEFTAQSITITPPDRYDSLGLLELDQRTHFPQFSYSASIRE
Sequence of PRKCE (human) (Q02156 whole entry, looked up): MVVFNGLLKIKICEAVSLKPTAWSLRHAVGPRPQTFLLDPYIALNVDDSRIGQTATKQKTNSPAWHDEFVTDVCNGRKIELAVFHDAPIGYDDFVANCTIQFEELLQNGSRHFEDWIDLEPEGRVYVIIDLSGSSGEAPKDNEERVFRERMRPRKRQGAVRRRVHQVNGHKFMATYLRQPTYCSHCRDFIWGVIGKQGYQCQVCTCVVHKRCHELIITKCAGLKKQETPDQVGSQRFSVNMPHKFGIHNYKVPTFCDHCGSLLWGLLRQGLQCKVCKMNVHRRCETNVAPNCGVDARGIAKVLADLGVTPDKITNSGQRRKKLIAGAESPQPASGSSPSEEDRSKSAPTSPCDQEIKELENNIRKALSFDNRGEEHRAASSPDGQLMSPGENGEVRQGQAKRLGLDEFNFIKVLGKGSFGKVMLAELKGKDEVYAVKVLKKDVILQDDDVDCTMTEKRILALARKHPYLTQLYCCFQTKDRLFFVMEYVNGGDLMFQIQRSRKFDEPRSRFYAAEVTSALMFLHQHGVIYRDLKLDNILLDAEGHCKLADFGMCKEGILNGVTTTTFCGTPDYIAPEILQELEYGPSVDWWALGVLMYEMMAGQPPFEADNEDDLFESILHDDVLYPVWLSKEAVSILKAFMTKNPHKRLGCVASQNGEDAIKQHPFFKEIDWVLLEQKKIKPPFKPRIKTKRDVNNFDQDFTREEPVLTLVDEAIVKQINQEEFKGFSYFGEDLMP
Sequence of AKT3 (human) (Q9Y243 whole entry, looked up): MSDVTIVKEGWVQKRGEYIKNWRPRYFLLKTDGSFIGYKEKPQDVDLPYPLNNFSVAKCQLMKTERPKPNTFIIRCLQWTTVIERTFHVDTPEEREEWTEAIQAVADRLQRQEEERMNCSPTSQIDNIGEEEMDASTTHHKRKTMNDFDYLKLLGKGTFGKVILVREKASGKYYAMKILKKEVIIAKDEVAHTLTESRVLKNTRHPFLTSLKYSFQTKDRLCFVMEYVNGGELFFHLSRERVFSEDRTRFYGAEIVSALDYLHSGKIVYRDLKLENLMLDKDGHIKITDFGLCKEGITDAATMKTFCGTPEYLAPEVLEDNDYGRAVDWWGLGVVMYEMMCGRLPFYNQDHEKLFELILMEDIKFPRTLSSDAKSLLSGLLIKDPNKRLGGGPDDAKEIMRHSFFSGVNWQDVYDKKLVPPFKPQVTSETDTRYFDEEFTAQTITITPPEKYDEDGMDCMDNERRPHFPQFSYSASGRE
Sequence of SGK3 (human) (Q96BR1 whole entry, looked up): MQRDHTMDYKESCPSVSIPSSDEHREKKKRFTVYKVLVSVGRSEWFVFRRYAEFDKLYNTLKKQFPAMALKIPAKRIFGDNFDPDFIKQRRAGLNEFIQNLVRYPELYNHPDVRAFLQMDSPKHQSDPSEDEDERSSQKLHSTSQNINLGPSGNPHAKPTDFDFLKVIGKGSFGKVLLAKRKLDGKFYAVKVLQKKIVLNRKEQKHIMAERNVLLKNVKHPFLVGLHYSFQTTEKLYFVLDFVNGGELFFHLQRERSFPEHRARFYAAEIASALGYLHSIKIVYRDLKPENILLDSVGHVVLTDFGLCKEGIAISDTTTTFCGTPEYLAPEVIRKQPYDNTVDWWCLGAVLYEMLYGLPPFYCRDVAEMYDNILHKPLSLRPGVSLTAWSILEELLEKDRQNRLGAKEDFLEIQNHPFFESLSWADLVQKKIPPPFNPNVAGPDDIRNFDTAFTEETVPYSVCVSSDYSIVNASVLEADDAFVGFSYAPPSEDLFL
Sequence of RPS6KA1 KD1 (human) (Q15418 whole entry, looked up): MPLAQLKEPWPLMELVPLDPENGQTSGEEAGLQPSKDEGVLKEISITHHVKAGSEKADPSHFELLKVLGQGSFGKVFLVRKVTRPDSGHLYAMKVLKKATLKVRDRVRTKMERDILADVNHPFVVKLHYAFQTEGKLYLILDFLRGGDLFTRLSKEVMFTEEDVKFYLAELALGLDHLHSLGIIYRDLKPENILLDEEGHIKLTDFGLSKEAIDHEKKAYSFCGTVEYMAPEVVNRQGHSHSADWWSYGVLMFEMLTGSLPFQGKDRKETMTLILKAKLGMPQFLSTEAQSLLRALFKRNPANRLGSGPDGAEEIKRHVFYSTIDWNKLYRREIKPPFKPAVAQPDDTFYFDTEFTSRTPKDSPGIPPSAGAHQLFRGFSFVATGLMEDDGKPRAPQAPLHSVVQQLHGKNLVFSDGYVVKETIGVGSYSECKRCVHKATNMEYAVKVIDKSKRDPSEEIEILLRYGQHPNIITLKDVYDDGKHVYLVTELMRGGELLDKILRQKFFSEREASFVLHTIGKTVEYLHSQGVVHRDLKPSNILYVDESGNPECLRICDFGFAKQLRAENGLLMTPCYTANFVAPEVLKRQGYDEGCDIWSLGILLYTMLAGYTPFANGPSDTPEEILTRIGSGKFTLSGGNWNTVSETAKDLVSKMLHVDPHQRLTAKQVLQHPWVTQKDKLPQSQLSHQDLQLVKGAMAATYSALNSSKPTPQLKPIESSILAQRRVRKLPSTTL
Sequence of PRKCI (human) (P41743 whole entry, looked up): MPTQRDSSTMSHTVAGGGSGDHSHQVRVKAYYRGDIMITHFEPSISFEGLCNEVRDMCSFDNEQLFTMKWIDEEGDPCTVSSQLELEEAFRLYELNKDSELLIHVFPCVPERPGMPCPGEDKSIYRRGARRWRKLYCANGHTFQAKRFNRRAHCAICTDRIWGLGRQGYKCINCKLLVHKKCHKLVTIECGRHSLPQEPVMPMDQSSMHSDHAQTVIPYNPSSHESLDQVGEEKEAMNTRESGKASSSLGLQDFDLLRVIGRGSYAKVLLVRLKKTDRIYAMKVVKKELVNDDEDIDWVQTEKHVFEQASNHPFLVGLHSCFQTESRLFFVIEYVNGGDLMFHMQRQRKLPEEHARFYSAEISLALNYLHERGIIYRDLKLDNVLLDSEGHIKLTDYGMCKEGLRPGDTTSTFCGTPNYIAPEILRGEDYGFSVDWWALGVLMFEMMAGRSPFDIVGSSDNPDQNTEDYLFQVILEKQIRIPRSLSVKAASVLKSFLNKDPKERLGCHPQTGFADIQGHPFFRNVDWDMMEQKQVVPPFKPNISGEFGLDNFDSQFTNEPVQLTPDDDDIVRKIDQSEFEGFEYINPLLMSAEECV

inhibition (AURKC (human)) [%]	inhibition (PRKCH (human)) [%]	inhibition (RPS6KA6 KD1 (human)) [%]	inhibition (PRKCE (human)) [%]	inhibition (AKT2 (human)) [%]	inhibition (PRKACA (mouse)) [%]	inhibition (RPS6KA3 KD1 (human)) [%]	inhibition (RPS6KA5 KD1 (human)) [%]	inhibition (SGK2 (human)) [%]	inhibition (PDPK1 (human)) [%]	inhibition (AURKA (human)) [%]	inhibition (AKT3 (human)) [%]	inhibition (SGK3 (human)) [%]	inhibition (PRKCI (human)) [%]	inhibition (DMPK (human)) [%]	inhibition (PKN1 (human)) [%]	inhibition (AKT1 (human)) [%]	inhibition (AURKB (human)) [%]	inhibition (PRKCQ (human)) [%]	inhibition (PRKX (human)) [%]	SMILES	other results
1	0	6	0	0	0	3	0	0	0	6	0	0	0	0	0	0	2	0	2	Brc1c(Br)c(Br)c2[nH]nnc2c1Br	inhibition (RPS6KA4 KD1 (human)): 0%; inhibition (PRKACB (human)): 1%; inhibition (PRKCD (human)): 0%; inhibition (PRKCG (human)): 0%; inhibition (RPS6KA1 KD1 (human)): 0%; inhibition (RPS6KA2 KD1 (human)): 4%; inhibition (STK32B (human)): 4%
21	0	0	0	0	11	0	0	0	0	0	0	0	0	0	0	5	0	0	13	Oc1ccc(-c2nc(-c3ccc(F)cc3)c(-c3ccncc3)[nH]2)cc1	inhibition (RPS6KA4 KD1 (human)): 0%; inhibition (PRKACB (human)): 0%; inhibition (PRKCD (human)): 7%; inhibition (PRKCG (human)): 0%; inhibition (RPS6KA1 KD1 (human)): 0%; inhibition (RPS6KA2 KD1 (human)): 0%; inhibition (STK32B (human)): 11%
0	0	0	3	0	5	0	0	0	0	3	0	0	11	8	0	3	0	3	1	Cn1cc(C2=C(c3ccc(Cl)cc3Cl)C(=O)NC2=O)c2ccccc21	inhibition (RPS6KA4 KD1 (human)): 0%; inhibition (PRKACB (human)): 8%; inhibition (PRKCD (human)): 5%; inhibition (PRKCG (human)): 2%; inhibition (RPS6KA1 KD1 (human)): 21%; inhibition (RPS6KA2 KD1 (human)): 1%; inhibition (STK32B (human)): 0%

SMILES	inhibition (AURKC (human)) [%]	inhibition (PRKCH (human)) [%]	inhibition (RPS6KA6 KD1 (human)) [%]	inhibition (PRKCE (human)) [%]	inhibition (AKT2 (human)) [%]	inhibition (PRKACA (mouse)) [%]	inhibition (RPS6KA3 KD1 (human)) [%]	inhibition (RPS6KA5 KD1 (human)) [%]	inhibition (SGK2 (human)) [%]	inhibition (PDPK1 (human)) [%]	inhibition (AURKA (human)) [%]	inhibition (AKT3 (human)) [%]	inhibition (SGK3 (human)) [%]	inhibition (PRKCI (human)) [%]	inhibition (DMPK (human)) [%]	inhibition (PKN1 (human)) [%]	inhibition (AKT1 (human)) [%]	inhibition (AURKB (human)) [%]	inhibition (PRKCQ (human)) [%]	inhibition (PRKX (human)) [%]	other results
CC1=C(O)C(=O)[C@@H]2OC2C1=O (stereo partly drawn)	0	7	5	0	0	0	0	2	0	2	0	0	1	0	0	0	0	0	0	0	inhibition (RPS6KA4 KD1 (human)): 0%; inhibition (PRKACB (human)): 0%; inhibition (PRKCD (human)): 0%; inhibition (PRKCG (human)): 0%; inhibition (RPS6KA1 KD1 (human)): 5%; inhibition (RPS6KA2 KD1 (human)): 0%; inhibition (STK32B (human)): 36%
